Experiments:
[1] = test system: antiserum raised to Immunogen I; assay: Competitive ELISA with IgG fraction of antiserum raised to Immunogen I (second bleed) and hapten 1-HRP detecting agent; assay type: binding, sheep
Procedure: (§1) The wells of an enhanced binding 96 well polystyrene microtiter plate were coated with IgG fraction of antiserum raised to Immunogen I or II, diluted in 10 mM Tris, pH 8.5 (125 μl/well). The appropriate antibody coating dilution was determined using standard ELISA checkerboard techniques. The plate was incubated overnight at 4° C., washed 4 times over 10 minutes with Tris buffered saline containing Tween20 (TBST) and tapped dry. Standard solutions (UR-144 N-pentanoic acid) were applied at 0, 0.625, 1.25, 2.5, 5, 10, 20 and 40 ng/ml and 50 μl of each was added to the appropriate wells. 75 μl of conjugate (appropriate hapten-HRP) diluted in Tris buffer (pH 7.2) containing EDTA, D-mannitol, sucrose, thimerosol and BSA, was added to each of the wells. The appropriate dilution of conjugate was also determined using standard ELISA checkerboard techniques. The plate was incubated at 25° C. for 1 hour. Excess unbound conjugate was removed by washing 6 times over a ten minute period with TBST. 125 μl of tetramethylbenzidine (TMB) substrate solution was added to each well of the plate that was then incubated for 20 minutes in the dark at room temperature. The reaction was terminated by addition of 125 μl of 0.2 M H2SO4 to each well. The absorbance was then measured at 450 nm using a microtiter plate reader. The data are inputted to a computer program called ‘KC Junior’ (Biotek). It gives a 4 parameter fit curve and allows the calculation of concentrations between the standard runs. This program is used to calculate the IC50 values by dividing the 0 ng/ml optical density (OD) value by 2 and obtaining the concentration value from the curve for this OD.
(§2) Cross-reactivity was calculated according to the following formula: % CR=IC50, UR-144 N-pentanoic acid/IC50, cross reactant×100 Where % CR is the percentage cross-reactivity, IC50, UR-144 N-pentanoic acid is the concentration of UR-144 N-pentanoic acid that causes 50% displacement of signal and IC50, cross reactant is the concentration of the cannabinoid/metabolite/selected molecule that causes 50% displacement of signal.
In order to determine the specificity of the competitive ELISAs, standard solutions of a range of structurally related synthetic cannabinoids and their metabolites were prepared in TBST (Tris-Buffered Saline and Tween 20). Using the calibration curves generated and employing a single level of cross reactants, these were used to determine the cross-reactivity of the immunoassays with these substances.

[2] = test system: antiserum raised to Immunogen I; assay: UR144/XLR11 Synthetic Cannabinoids (Spice) ELISA, antiserum raised to Immunogen I (third bleed); assay type: binding, sheep; settings: for Concentration of compounds that elicit a negative response: Table 4, negative response at this concentration; for % Cross-Reactivity: Table 4, relative to UR144 N-Pentanoic Acid = 100
Procedure: as §1, §2
A further assay was carried out in accordance with the protocol described in Example 9 using Immunogen I.

[3] = test system: antibodies provided in European patent application number 2,487,155; settings: antibodies of EP 2,487,155; cited from earlier work
CB1 receptor = CB1 receptor (Homo sapiens, UniProt P21554); settings: CB1 versus CB2; cited from earlier work
CB1 receptor, sequence (P21554 whole entry): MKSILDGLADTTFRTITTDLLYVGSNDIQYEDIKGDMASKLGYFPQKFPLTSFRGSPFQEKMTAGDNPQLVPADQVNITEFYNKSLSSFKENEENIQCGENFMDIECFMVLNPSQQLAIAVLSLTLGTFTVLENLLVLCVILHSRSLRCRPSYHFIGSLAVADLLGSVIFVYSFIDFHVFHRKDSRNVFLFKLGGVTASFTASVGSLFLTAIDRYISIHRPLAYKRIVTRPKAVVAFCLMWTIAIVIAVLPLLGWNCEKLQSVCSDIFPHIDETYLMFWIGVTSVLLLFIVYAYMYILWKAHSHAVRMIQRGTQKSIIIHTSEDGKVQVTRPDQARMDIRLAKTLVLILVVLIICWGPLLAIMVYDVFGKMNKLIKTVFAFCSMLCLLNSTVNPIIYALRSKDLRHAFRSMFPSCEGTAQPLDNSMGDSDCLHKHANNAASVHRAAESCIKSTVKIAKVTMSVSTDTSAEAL

[4] = Table 2, cross-reactant at 100 ng/ml (single level)
[5] = Table 2, cross-reactant tested at 100 ng/ml
[6] = Table 2, cross-reactant tested at 100 ng/ml, relative to UR-144 N-pentanoic acid
[7] = Table 1, B = absorbance at 450 nm at x ng/ml standard, B0 at 0 ng/ml, second bleed
[8] = Table 1, CR based on 100% for UR-144 N-pentanoic acid
[9] = Table 1, standard concentration which produces 50% B/B0, second bleed

Row | SMILES | % B/BO [1, 4] [%] | IC50 [1, 5] [µg/mL] | % Cross-reactivity (CR) [1, 6] [%] | Concentration of compounds that elicit a negative response [2] [ng/mL] | % B/BO [1, 7] [%] | % Cross-reactivity (CR) [1, 8] [%] | IC50 [1, 9] [µg/mL] | % Cross-Reactivity [2] [%] | cross-reactivity (in words) [3] | lower affinity for the CB1 receptor than for CB2 (CB1 receptor) [×]
1 | C=CCCCn1cc(C(=O)c2cccc3ccccc23)c2ccccc21 [JWH-022] | 91.83 | >0.1 | <3.0 | 100 | – | – | – | – | – | –
2 | CCCCn1cc(C(=O)c2cccc3ccccc23)c2ccccc21 [JWH-073] | 90.44 | >0.1 | <3.0 | 100 | – | – | – | – | – | –
3 | CCCCCn1cc(C(=O)c2ccc(OC)c3ccccc23)c2ccccc21 [JWH-081] | 97.10 | >0.1 | <3.0 | 100 | – | – | – | – | – | –
4 | CCCCCn1c(C)c(C(=O)c2ccc(OC)c3ccccc23)c2ccccc21 [JWH-098] | 93.94 | >0.1 | <3.0 | 100 | – | – | – | – | – | –
5 | CCCCCn1cc(C(=O)c2ccc(C)c3ccccc23)c2ccccc21 [JWH-122] | 97.01 | >0.1 | <3.0 | 100 | – | – | – | – | – | –
6 | O=C(c1cccc2ccccc12)c1cn(CCN2CCOCC2)c2ccccc12 [JWH-200] | 86.38 | >0.1 | <3.0 | 100 | – | – | – | – | – | –
7 | CCCCCn1cc(C(=O)Cc2ccccc2OC)c2ccccc21 [JWH-250] | 85.90 | >0.1 | <3.0 | 100 | – | – | – | – | – | –
8 | CCCCCn1cc(C(=O)c2ccc(Cl)c3ccccc23)c2ccccc21 [JWH-398] | 88.86 | >0.1 | <3.0 | 100 | – | – | – | – | – | –
9 | CCCCCn1cc(C(=O)c2ccc(OC)cc2)c2ccccc21 [RCS 4] | 80.02 | >0.1 | <3.0 | 100 | – | – | – | – | – | –
10 | COc1ccccc1CC(=O)c1cn(CCC2CCCCC2)c2ccccc12 [RCS 8] | 88.15 | >0.1 | <3.0 | 100 | – | – | – | – | – | –
11 | CC1(C)C(C(=O)c2cn(CCCCC(=O)O)c3ccccc23)C1(C)C [UR-144 N-pentanoic acid] | – | – | – | – | 16.8 | 100 | 0.003484 | 100 | – | –
12 | CC1(C)C(C(=O)c2cn(CCCCCO)c3ccccc23)C1(C)C [UR-144 N-pentanol] | – | – | – | – | 13.0 | 109.2 | 0.003191 | 110 | – | –
13 | CC1(C)C(C(=O)c2c[nH]c3ccccc23)C1(C)C [UR-144 desalkyl] | – | – | – | – | 38.5 | 18.1 | 0.019207 | 13 | – | –
14 | CCCCCn1cc(C(=O)C2C(C)(C)C2(C)C)c2ccccc21 [UR-144, (1-pentyl-1H-Indol-3-yl)(2,2,3,3-tetramethylcyclopropyl) methanone] | – | – | – | – | 40.5 | 15.3 | 0.022815 | 19 | no significant cross-reactivity | 83
15 | CC1(C)C(C(=O)c2cn(CCCCCF)c3ccccc23)C1(C)C [XLR-11, (1-(5-fluoropentyl)-1H-Indol-3-yl)(2,2,3,3-tetramethylcyclopropyl) methanone] | – | – | – | – | 24.0 | 36.9 | 0.009454 | 29 | – | –

From patent publication US9079964B2, “Immunoassay for cyclopropylindole based synthetic cannabinoids, metabolites and derivatives thereof” (Randox Laboratories Limited, priority 2013, dated 2015)
